Measurements published in ChEMBL document CHEMBL4613315, “Design of First-in-Class Dual EZH2/HDAC Inhibitor: Biochemical Activity and Biological Evaluation in Cancer Cells” (ACS Med Chem Lett, 2020).

Key:
Histone deacetylase 1 = Histone deacetylase 1 (Homo sapiens, UniProt Q13547); assay: Inhibition of human recombinant HDAC1 using AMC-K(Ac)GL as substrate by fluorescence based assay
Histone deacetylase 2 = Histone deacetylase 2 (Homo sapiens, UniProt Q92769)
Description: Inhibition of human recombinant HDAC2 using AMC-K(Ac)GL as substrate by fluorescence based assay

Histone deacetylase 3 = Histone deacetylase 3 (Homo sapiens, UniProt O15379); assay: Inhibition of human recombinant HDAC3 using AMC-K(Ac)GL as substrate by fluorescence based assay
Sequence of Histone deacetylase 3 (O15379 whole entry): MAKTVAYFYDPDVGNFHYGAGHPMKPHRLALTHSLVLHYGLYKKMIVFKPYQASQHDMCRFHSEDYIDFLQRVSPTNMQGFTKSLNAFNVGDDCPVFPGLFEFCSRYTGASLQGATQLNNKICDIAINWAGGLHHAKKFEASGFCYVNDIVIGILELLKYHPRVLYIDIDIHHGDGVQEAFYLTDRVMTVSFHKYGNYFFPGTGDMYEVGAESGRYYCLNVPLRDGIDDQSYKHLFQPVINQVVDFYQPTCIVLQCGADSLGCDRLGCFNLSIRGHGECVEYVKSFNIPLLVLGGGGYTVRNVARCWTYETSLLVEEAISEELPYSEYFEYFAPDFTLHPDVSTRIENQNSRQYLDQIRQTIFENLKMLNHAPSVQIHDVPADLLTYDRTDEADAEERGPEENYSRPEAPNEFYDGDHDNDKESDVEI

Histone deacetylase 5 = Histone deacetylase 5 (Homo sapiens, UniProt Q9UQL6); assay: Inhibition of human recombinant HDAC5 using AMC-K(TFA)GL as substrate by fluorescence based assay
Sequence of Histone deacetylase 5 (Q9UQL6 whole entry): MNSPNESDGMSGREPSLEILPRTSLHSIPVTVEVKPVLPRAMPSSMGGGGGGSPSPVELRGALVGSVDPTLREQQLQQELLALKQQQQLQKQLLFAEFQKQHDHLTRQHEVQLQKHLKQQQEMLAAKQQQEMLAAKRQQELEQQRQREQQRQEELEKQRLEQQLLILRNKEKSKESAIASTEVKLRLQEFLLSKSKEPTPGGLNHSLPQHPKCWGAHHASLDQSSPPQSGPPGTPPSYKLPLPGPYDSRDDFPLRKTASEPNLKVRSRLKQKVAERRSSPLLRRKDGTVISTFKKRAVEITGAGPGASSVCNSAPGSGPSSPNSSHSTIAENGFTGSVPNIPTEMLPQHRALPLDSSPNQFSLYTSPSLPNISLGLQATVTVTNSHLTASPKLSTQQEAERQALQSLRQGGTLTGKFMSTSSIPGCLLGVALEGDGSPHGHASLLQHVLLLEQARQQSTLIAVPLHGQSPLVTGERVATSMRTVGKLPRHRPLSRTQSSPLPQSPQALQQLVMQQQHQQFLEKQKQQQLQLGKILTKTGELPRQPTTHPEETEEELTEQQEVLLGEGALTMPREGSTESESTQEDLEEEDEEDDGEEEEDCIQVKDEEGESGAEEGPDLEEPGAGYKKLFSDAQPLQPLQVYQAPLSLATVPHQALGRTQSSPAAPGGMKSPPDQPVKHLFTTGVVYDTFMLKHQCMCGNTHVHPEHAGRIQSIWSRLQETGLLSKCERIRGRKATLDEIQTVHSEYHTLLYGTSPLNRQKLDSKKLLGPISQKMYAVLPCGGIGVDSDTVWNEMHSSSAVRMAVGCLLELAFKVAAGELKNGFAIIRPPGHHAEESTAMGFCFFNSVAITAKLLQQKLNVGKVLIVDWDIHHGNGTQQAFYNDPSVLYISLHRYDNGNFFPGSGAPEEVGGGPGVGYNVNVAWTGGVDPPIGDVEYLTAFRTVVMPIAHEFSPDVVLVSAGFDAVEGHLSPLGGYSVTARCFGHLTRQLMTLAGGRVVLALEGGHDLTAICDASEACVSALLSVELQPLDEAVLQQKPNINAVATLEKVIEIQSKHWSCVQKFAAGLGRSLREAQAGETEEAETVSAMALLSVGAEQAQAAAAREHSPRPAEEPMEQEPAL

[1] = molecular target: T1, Protein deacetylase HDAC6 (Homo sapiens, UniProt Q9UBN7); assay: Inhibition of human recombinant HDAC6 using AMC-K(Ac)GL as substrate by fluorescence based assay
T1 sequence (Q9UBN7 whole entry): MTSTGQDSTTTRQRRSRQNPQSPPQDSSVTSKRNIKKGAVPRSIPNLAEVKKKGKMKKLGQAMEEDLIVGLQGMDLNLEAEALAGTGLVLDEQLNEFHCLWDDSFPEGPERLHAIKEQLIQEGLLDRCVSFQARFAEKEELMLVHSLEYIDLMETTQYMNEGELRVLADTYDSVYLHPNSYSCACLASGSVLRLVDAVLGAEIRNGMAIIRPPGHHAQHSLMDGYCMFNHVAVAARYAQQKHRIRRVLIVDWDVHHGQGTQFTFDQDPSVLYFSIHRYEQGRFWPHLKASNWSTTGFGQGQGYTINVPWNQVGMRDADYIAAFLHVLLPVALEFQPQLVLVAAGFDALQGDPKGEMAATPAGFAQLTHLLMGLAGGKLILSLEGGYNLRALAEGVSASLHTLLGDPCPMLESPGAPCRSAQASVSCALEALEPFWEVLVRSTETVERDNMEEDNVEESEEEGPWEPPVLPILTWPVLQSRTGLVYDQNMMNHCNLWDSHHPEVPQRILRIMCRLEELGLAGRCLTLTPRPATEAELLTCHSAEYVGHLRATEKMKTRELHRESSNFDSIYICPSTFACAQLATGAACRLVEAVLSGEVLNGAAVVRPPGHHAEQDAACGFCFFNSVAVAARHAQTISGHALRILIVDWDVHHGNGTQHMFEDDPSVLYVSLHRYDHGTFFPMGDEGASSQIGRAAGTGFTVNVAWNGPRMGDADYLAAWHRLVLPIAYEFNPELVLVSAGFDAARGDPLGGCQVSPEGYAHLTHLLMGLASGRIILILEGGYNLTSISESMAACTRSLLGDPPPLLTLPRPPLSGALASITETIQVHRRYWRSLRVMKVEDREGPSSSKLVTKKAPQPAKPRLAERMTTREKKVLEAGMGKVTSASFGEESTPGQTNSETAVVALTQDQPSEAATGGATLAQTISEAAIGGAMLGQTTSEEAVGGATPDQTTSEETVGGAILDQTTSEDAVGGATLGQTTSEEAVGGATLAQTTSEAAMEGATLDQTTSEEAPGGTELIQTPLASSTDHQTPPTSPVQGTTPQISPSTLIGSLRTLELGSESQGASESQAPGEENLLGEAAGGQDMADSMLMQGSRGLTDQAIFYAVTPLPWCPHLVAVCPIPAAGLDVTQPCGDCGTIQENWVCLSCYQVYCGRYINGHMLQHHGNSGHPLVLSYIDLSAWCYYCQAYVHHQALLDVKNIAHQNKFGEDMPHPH

Histone deacetylase 8 = molecular target: T2, Histone deacetylase 8 (Homo sapiens, UniProt Q9BY41); assay: Inhibition of human recombinant HDAC8 using AMC-K(Ac)GL as substrate by fluorescence based assay
T2 sequence (Q9BY41 whole entry): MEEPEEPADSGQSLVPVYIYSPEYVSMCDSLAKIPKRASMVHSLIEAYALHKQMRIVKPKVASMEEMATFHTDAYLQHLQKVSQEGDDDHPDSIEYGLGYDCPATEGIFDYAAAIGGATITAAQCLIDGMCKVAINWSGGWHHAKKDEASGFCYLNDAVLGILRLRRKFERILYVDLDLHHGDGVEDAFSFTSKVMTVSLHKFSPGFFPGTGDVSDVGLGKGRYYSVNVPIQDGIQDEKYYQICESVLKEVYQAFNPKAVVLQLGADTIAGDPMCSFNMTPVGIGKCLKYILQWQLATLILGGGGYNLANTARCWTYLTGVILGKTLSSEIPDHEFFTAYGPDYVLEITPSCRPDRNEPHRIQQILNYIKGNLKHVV

[2] = molecular target: T3, Histone-lysine N-methyltransferase EZH2 (Homo sapiens, UniProt Q15910); assay: Inhibition of human EZH2 using core histone as substrate at 100 uM incubated for 1 hr by fluorescence based assay relative to control
Target sequence in this assay (Q15910 whole entry, looked up): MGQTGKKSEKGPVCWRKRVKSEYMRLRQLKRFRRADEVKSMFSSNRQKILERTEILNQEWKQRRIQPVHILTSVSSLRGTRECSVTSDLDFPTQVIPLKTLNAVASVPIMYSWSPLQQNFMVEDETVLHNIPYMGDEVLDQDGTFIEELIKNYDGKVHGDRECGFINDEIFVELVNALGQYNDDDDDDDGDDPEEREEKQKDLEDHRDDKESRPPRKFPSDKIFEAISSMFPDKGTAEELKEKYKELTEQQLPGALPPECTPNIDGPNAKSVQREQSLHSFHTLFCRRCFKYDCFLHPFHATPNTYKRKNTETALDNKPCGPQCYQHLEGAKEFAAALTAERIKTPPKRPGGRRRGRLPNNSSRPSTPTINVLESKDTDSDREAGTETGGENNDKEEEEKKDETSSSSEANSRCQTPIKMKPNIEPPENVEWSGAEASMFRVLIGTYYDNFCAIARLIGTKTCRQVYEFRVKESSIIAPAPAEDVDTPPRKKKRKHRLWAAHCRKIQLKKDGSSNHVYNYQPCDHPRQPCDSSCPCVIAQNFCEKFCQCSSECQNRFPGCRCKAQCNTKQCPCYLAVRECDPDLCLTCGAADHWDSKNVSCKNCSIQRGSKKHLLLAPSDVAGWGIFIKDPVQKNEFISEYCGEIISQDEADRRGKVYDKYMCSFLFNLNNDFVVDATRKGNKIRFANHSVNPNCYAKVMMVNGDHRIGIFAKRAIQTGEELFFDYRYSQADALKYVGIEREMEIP

[3] = molecular target: T3, Histone-lysine N-methyltransferase EZH2; assay: Inhibition of human EZH2 using core histone as substrate incubated for 1 hr by fluorescence based assay
Target sequence in this assay (Q15910 whole entry): as the sequence (Q15910 whole entry, looked up) above

Sequence of Histone deacetylase 1 (Q13547 whole entry): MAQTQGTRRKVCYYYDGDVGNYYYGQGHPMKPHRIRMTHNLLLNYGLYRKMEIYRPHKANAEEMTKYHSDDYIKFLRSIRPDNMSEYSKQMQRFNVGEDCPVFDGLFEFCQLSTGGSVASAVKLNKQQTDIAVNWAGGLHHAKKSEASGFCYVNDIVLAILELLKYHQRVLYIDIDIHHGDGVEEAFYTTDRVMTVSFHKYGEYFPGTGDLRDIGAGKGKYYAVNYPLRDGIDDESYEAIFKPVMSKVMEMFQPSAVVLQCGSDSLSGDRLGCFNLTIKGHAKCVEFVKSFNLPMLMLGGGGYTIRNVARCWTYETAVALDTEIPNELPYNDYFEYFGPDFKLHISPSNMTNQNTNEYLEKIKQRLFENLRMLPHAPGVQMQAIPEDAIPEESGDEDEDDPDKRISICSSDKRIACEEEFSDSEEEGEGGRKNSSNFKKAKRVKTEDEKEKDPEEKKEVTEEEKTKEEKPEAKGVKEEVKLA
Sequence of Histone deacetylase 2 (Q92769 whole entry): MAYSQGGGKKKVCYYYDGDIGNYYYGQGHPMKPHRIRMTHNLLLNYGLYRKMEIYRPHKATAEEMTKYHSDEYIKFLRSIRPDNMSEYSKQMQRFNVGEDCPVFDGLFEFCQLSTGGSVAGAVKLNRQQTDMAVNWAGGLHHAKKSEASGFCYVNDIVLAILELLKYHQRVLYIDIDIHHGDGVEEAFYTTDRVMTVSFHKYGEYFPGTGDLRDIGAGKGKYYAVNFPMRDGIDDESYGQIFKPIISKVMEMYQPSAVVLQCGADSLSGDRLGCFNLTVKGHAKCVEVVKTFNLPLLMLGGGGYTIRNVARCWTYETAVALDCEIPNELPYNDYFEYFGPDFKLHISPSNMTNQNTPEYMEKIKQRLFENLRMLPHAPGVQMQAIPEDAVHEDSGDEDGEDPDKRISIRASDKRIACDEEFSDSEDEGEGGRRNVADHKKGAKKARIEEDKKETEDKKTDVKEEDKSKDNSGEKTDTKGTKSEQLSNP

| Compound | IC50 (Histone deacetylase 1) [nM] | IC50 (Histone deacetylase 2) [nM] | IC50 (Histone deacetylase 3) [nM] | IC50 (Histone deacetylase 5) [µM] | IC50 [1] [nM] | IC50 (Histone deacetylase 8) [nM] | inhibition [2] [%] | IC50 [3] [µM] |
| --- | --- | --- | --- | --- | --- | --- | --- | --- |
| Cc1cc(C)c(CNC(=O)c2cnn(-c3cccc(NC(=O)CCCCCCC(=O)NO)c3)c2C)c(=O)[nH]1 | 830 | 2360 | 1480 | 101 | 10 | 2080 | 4 | – |
| Cc1cc(C)c(CNC(=O)c2cnn(-c3ccccc3)c2C)c(=O)[nH]1 | – | – | – | – | – | – | – | 15.4 |
